Our source for the IC50 values is patent publication US12011444B2, “N-substituted indole derivatives as PGE2 receptor modulators” (Idorsia Pharmaceuticals Ltd, priority 2015, dated 2024).

The target in one test is EP4 (Homo sapiens (Human), UniProt P35408). The test can be described thus: hEP4 cAMP assay (BT549 breast cancer cells, HTRF cAMP). Type of test: cell-based. The note with it: antagonistic activity; mean values where measured multiple times. On the procedure: Plate is pre-incubated 45 minutes at room temperature. Subsequently, 2.5 microliters of PGE2 (final conc. 6 nM) are transferred into the assay plate. Plate is incubated 30 minutes at room temperature.
In general terms: cAMP levels reflect the balance of adenylyl cyclase and phosphodiesterase activity.

In the next test the target is EP2 (Homo sapiens (Human), UniProt P43116).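 Also: antagonism of PGE2-stimulated cAMP accumulation in SF295 human glioblastoma cells with endogenous EP2, cAMP read by HTRF, expressed relative to DMSO control.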
Chain of EP2 (P43116 whole entry): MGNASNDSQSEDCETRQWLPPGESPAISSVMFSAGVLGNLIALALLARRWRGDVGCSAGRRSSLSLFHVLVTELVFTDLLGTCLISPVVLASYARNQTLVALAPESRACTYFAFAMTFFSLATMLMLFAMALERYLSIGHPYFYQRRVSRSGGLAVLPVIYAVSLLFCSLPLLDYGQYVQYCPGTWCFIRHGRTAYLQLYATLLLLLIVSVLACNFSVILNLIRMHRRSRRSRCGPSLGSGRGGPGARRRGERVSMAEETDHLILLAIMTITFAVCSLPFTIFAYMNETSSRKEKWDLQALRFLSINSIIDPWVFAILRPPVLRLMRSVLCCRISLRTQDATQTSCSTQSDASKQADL

Chain of EP4 (P35408 whole entry): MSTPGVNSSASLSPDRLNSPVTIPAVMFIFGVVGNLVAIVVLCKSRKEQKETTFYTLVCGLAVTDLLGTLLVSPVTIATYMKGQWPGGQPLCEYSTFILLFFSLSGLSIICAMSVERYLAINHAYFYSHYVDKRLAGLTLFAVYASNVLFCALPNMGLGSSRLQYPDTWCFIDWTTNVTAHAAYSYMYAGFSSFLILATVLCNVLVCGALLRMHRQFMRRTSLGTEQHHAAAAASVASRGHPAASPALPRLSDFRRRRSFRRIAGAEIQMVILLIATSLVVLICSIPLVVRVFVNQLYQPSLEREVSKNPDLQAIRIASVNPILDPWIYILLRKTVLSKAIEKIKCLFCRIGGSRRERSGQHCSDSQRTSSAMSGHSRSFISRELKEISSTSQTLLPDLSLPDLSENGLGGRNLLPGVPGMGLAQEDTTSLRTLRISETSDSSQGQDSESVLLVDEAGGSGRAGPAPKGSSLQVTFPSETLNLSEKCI

For `Cc1ccc(Cl)c2c1cc(C)n2CCNc1cc(-c2ccc(C(=O)O)c(SC3CCC3)c2)ncn1` [compound 452, 4-{6-[2-(7-Chloro-2,4-dimethyl-indol-1-yl)-ethylamino]-pyrimidin-4-yl}-2-cyclobutylsulfanyl-benzoic acid], the 50% inhibitory concentration (IC50) against EP4 turned out to be 468 nM; on EP2 it was 34 nM.
As for `Cc1cc2c(Cl)ccc(Cl)c2n1CCNc1cc(-c2ccc(C(=O)O)c(SC3CCC3)c2)ncn1` [compound 453, 2-Cyclobutylsulfanyl-4-{6-[2-(4,7-dichloro-2-methyl-indol-1-yl)-ethylamino]-pyrimidin-4-yl}-benzoic acid], the IC50 against EP4 stood at 904 nM; at EP2, 31 nM.
With `CCOc1cc(-c2cc(NCCn3c(C)cc4c5c(cc(Cl)c43)OCO5)ncn2)ccc1C(=O)O` [compound 454, 4-{6-[2-(5-Chloro-7-methyl-[1,3]dioxolo[4,5-e]indol-6-yl)-ethylamino]-pyrimidin-4-yl}-2-ethoxy-benzoic acid], the IC50 amounted to 445 nM against EP4 and 14 nM at EP2.
Regarding `COc1ccc(F)c2c1cc(C)n2CCNc1cc(-c2ccc(-c3nnc(C)o3)c(F)c2)ncn1` [compound 455], the figures for the 50% inhibitory concentration (IC50) at EP4 and at EP2 were 154 nM and 74 nM, respectively.
Taken in the same sequence, the figures for `Cc1ccc(F)c2c1cc(C)n2CCNc1cc(-c2ccc(-c3n[nH]cc3C(=O)O)cc2)ncn1` [compound 456] were 944 nM and 233 nM.
The corresponding values for `COc1ccc(F)c2c1cc(C)n2CCNc1cc(-c2ccc(Cn3cccn3)c(F)c2)ncn1` [compound 457] are 480 nM and 888 nM.
The corresponding values for `COc1ccc(F)c2c1cc(C)n2CCNc1cc(-c2ccc(-c3nc(N)sc3C)cc2)ncn1` [compound 458, {6-[4-(2-Amino-5-methyl-thiazol-4-yl)-phenyl]-pyrimidin-4-yl}-[2-(7-fluoro-4-methoxy-2-methyl-indol-1-yl)-ethyl]-amine] are 74 nM and 25 nM.
As to `COc1ccc(F)c2c1cc(C)n2CCNc1cc(-c2ccc(-n3nc(C)cc3C)cc2)ncn1` [compound 459], the 50% inhibitory concentration (IC50) against EP4 came out at 739 nM; on EP2, 62 nM.
Take `CCNc1cc(-c2cc(NCCn3c(C)cc4c5c(cc(Cl)c43)OCO5)ncn2)ccc1C(=O)O` [compound 460, 4-{6-[2-(5-Chloro-7-methyl-[1,3]dioxolo[4,5-e]indol-6-yl)-ethylamino]-pyrimidin-4-yl}-2-ethylamino-benzoic acid]: the half-inhibitory concentration (IC50) at EP4 is 146 nM; against EP2, 4 nM.
The corresponding values for `COc1cccc2c1cc(C)n2CCNc1cc(-c2ccc3c(c2)CN(CC(C)C)C3=O)ncn1` [compound 462] are 842 nM and 61 nM.
For the molecule `CCOc1cc(-c2cc(NCCn3c(C)cc4c(OC)cccc43)ncn2)ccc1CNC1CC1` [compound 463], the IC50 is 741 nM at EP4 and 252 nM on EP2.
Turning to `Cc1ccc(F)c2c1cc(C)n2CCNc1cc(-c2ccc(C(=O)O)c(N3CCCC3)c2)ncn1` [compound 464, 4-{6-[2-(7-Fluoro-2,4-dimethyl-indol-1-yl)-ethylamino]-pyrimidin-4-yl}-2-pyrrolidin-1-yl-benzoic acid], the 50% inhibitory concentration (IC50) at EP4 turned out to be 459 nM; on EP2, 15 nM.
As to `CCCN1Cc2cc(-c3cc(NCCn4c(C)cc5c(OC)ccc(F)c54)ncn3)ccc2C1=O` [compound 466, 5-{6-[2-(7-Fluoro-4-methoxy-2-methyl-indol-1-yl)-ethylamino]-pyrimidin-4-yl}-2-propyl-2,3-dihydro-isoindol-1-one], the IC50 stood at 229 nM on EP4 and 33 nM on EP2.
As for `Cc1ccc(F)c2c1cc(C)n2CCNc1cc(-c2ccc3c(c2)CN(CC(C)C)C3=O)ncn1` [compound 467], the values for the concentration for half-maximal inhibition (IC50) against EP4 and against EP2 were 994 nM and 387 nM, respectively.
In the case of `COc1ccc(F)c2c1cc(C)n2CCNc1cc(-c2ccc(N3CCCS3(=O)=O)cc2)ncn1` [compound 469], the half-maximal inhibitory concentration (IC50) at EP4 was 667 nM; against EP2, 68 nM.
With `COc1ccc(F)c2c1cc(C)n2CCNc1cc(-c2ccc(C(=O)O)c3c2ccn3C)ncn1` [compound 470], the figures for the 50% inhibitory concentration (IC50) against EP4 and against EP2 were 735 nM and 63 nM, respectively.
The corresponding values for `CNc1nnc(-c2ccc(-c3cc(NCCn4c(C)cc5c(OC)ccc(F)c54)ncn3)cc2)s1` [compound 471, [2-(7-Fluoro-4-methoxy-2-methyl-indol-1-yl)-ethyl]-{6-[4-(5-methylamino-[1,3,4]thiadiazol-2-yl)-phenyl]-pyrimidin-4-yl}-amine] are 29 nM and 2 nM.
As for `COc1ccc(F)c2c1cc(C)n2CCNc1cc(-c2ccc(C(=O)O)c(OC3CCC3)c2)ncn1` [compound 472, 2-Cyclobutoxy-4-{6-[2-(7-fluoro-4-methoxy-2-methyl-indol-1-yl)-ethylamino]-pyrimidin-4-yl}-benzoic acid], the figures for the half-maximal inhibitory concentration (IC50) at EP4 and on EP2 were 66 nM and 5 nM, respectively.
Taken in the same sequence, the figures for `CCOc1cc(-c2cc(NCCn3c(C)cc4c(OC)ccc(F)c43)ncn2)ccc1CNC1CC1` [compound 473] were 646 nM and 538 nM.
With `COc1ccc(F)c2c1cc(C)n2CCNc1cc(-c2ccc3c(c2)CN(CC(C)C)C3=O)ncn1` [compound 475], the values for the 50% inhibitory concentration (IC50) against EP4 and at EP2 were 259 nM and 54 nM, respectively.
Regarding `COc1ccc(F)c2c1cc(C)n2CCNc1cc(-c2ccc(-c3csc(C(=O)O)n3)cc2)ncn1` [compound 476, 4-(4-{6-[2-(7-Fluoro-4-methoxy-2-methyl-indol-1-yl)-ethylamino]-pyrimidin-4-yl}-phenyl)-thiazole-2-carboxylic acid], the IC50 against EP4 was determined as 48 nM; on EP2, 18 nM.
`Cc1noc(-c2ccc(-c3cc(NCCn4c(C)cc5c(C)ccc(F)c54)ncn3)cc2)c1C(=O)O` [compound 477]: the half-maximal inhibitory concentration (IC50) came out at 574 nM on EP4 and 122 nM against EP2.
Taken in the same sequence, the figures for `COc1ccc(F)c2c1cc(C)n2CCNc1cc(-c2ccc(C(=O)O)c(N3CCCC3)c2)ncn1` [compound 478, 4-{6-[2-(7-Fluoro-4-methoxy-2-methyl-indol-1-yl)-ethylamino]-pyrimidin-4-yl}-2-pyrrolidin-1-yl-benzoic acid] were 665 nM and 11 nM.
`Cc1ccc(F)c2c1cc(C)n2CCNc1cc(-c2ccc(C(=O)O)c(NS(C)(=O)=O)c2)ncn1` [compound 479]: the IC50 was found to be 233 nM on EP4 and 127 nM against EP2.
Take `CCOc1cc(-c2cc(NCCn3c(C#N)cc4c(OC)cc(F)cc43)ncn2)ccc1C(=O)O` [compound 480]: the results for the half-maximal inhibitory concentration (IC50) against EP4 and at EP2 were 75 nM and 26 nM, respectively.
The corresponding values for `Cc1cc(F)cc2c1cc(C#N)n2CCNc1cc(-c2ccc(C(=O)O)c(CC(C)C)c2)ncn1` [compound 481] are 112 nM and 61 nM.
As to `Cc1cc2c(F)ccc(C#N)c2n1CCNc1cc(-c2ccc(C(=O)O)c(CC(C)C)c2)ncn1` [compound 482], the IC50 against EP4 was 986 nM; at EP2, 686 nM.
`CCNc1cc(-c2cc(NCCn3c(C)cc4c(OC)ccc(F)c43)ncn2)cc(F)c1C(=O)O` [compound 483]: the figures for the IC50 on EP4 and against EP2 were 98 nM and 4 nM, respectively.
On to `CCCCOc1cc(-c2cc(NCCn3c(C)cc4c(OC)cccc43)ncn2)ccc1C(=O)O` [compound 484], for which the concentration for half-maximal inhibition (IC50) against EP4 was 117 nM; against EP2 it was 1 nM.
Taken in the same sequence, the figures for `COc1cccc2c1cc(C)n2CCNc1cc(-c2ccc(C(=O)O)c(OCC(C)C)c2)ncn1` [compound 485] were 245 nM and 3 nM.
Taken in the same sequence, the figures for `CCOc1cc(-c2cc(NCCn3c(C)cc4c(OC)c(F)cc(Cl)c43)ncn2)ccc1C(=O)O` [compound 486] were 325 nM and 91 nM.
In the case of `CCOc1cc(-c2cc(NCCn3c(C)cc4c(OC)cc(F)c(F)c43)ncn2)ccc1C(=O)O` [compound 487], the IC50 worked out at 76 nM against EP4 and 49 nM on EP2.
On to `CCOc1cc(-c2cc(NCCn3c(C)cc4c(OC)ccc(Cl)c43)ncn2)cc(Cl)c1C(=O)O` [compound 488], for which the IC50 stood at 219 nM at EP4 and 70 nM against EP2.
Take `CCOc1cc(-c2cc(NCCn3c(C)cc4c(OC)ccc(F)c43)ncn2)cc(Cl)c1C(=O)O` [compound 489]: the IC50 on EP4 is 103 nM; against EP2, 25 nM.
As to `CCOc1cc(-c2cc(NCCn3c(C)cc4c(OC)ccc(F)c43)ncn2)cc(F)c1C(=O)O` [compound 490], the 50% inhibitory concentration (IC50) worked out at 165 nM on EP4 and 17 nM on EP2.
For `CCOc1cc(-c2cc(NCCn3c(C)cc4c(OC)c(Cl)cc(F)c43)ncn2)ccc1C(=O)O` [compound 491], the IC50 came to 707 nM on EP4 and 765 nM on EP2.
Turning to `CCOc1cc(-c2cc(NCCn3c(C)cc4c(OC)cc(F)cc43)nc(C)n2)ccc1C(=O)O` [compound 492], the IC50 came out at 626 nM on EP4 and 63 nM on EP2.
In the case of `CCCOc1cc(-c2cc(NCCn3c(C)cc4c(OC)cc(F)cc43)ncn2)ccc1C(=O)O` [compound 493], the IC50 amounted to 119 nM against EP4 and 21 nM against EP2.
For `CCOc1cc(-c2cc(NCCn3c(C)cc4c(OC)ccc(F)c43)nc(C)n2)ccc1C(=O)O` [compound 494], the IC50 worked out at 618 nM on EP4 and 25 nM on EP2.
Consider `CCCOc1cc(-c2cc(NCCn3c(C)cc4c(OC)ccc(Cl)c43)ncn2)ccc1C(=O)O` [compound 495], for which the IC50 on EP4 was 350 nM; against EP2 it was 21 nM.
As for `CCCOc1cc(-c2cc(NCCn3c(C)cc4c(OC)ccc(F)c43)ncn2)ccc1C(=O)O` [compound 496], the IC50 amounted to 99 nM against EP4 and 8 nM at EP2.
Turning to `CCCOc1cc(-c2cc(NCCn3c(C)cc4c(OC)cccc43)ncn2)cc(Cl)c1C(=O)O` [compound 497], the figures for the 50% inhibitory concentration (IC50) at EP4 and against EP2 were 168 nM and 11 nM, respectively.
Taken in the same sequence, the figures for `CCCOc1cc(-c2cc(NCCn3c(C)cc4c(OC)cccc43)ncn2)cc(F)c1C(=O)O` [compound 498] were 609 nM and 20 nM.
As for `COc1cccc2c1cc(C)n2CCNc1cc(-c2ccc(C(=O)O)c(OC(F)(F)F)c2)ncn1` [compound 499], the IC50 on EP4 was determined as 714 nM; against EP2, 6 nM.

What is called IC50 is the concentration that gives 50% inhibition. Lower therefore signals higher potency.
